Measured values reported in patent US7446199B2, “Compositions useful as inhibitors of protein kinases” (Vertex Pharmaceuticals Incorporated, priority 2003, dated 2008).

How the values were obtained:
Type in all cases: biochemical
[1] = target: SYK (Homo sapiens, UniProt P43405); assay: SYK enzyme assay, coupled enzyme assay; conditions: 200 μM ATP, 4 μM poly Gly-Tyr peptide, 30° C.
Outline: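 Pyruvate kinase/lactate dehydrogenase-coupled NADH assay in HEPES pH 7.5 with MgCl2, NaCl, DTT and 1.5% DMSO, using 200 μM ATP, 4 μM poly Gly-Tyr and 25 nM enzyme. Compound at 30 μM final was preincubated ~10 min at 30 °C. Rates were read over 5 min at 30 °C and Ki derived.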

[2] = target: T1, Aurora-2 (Homo sapiens, UniProt O14965); assay: Inhibition of AUR-2, coupled enzyme assay; conditions: 70 nM Aurora-2, 800 μM peptide LRRASLG, 30° C.
T1 construct: addition of 10 μL of Aurora-2 stock solution to give a final concentration of 70 nM
T1 sequence (O14965 1-403): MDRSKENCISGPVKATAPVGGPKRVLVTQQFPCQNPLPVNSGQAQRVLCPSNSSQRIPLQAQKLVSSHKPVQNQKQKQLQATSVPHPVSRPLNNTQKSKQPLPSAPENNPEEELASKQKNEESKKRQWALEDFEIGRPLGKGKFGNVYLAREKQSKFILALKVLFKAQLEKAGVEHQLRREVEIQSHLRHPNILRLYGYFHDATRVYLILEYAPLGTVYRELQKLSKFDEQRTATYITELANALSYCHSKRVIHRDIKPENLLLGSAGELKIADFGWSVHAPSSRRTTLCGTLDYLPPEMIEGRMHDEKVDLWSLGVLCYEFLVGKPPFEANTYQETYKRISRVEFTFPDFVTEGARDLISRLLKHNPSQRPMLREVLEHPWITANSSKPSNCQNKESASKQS
Protocol: Compounds are screened in the following manner for their ability to inhibit Aurora-2 using a standard coupled enzyme assay (Fox et al. (1998) Protein Sci 7, 2249). To an assay stock buffer solution containing 0.1M HEPES 7.5, 10 mM MgCl2, 1 mM DTT, 25 mM NaCl, 2.5 mM phosphoenolpyruvate, […], […], […], and 800 μM peptide (LRRASLG, American Peptide, Sunnyvale, Calif.) is added a DMSO solution of a compound of the present invention to a final concentration of 30 μM. The resulting mixture is incubated at 30° C. for 10 min. The reaction was initiated by the addition of 10 μL of Aurora-2 stock solution to give a final concentration of 70 nM in the assay. The rates of reaction are obtained by monitoring absorbance at 340 nm over a 5 minute read time at 30° C. using a BioRad Ultramark plate reader (Hercules, Calif.). The Ki values are determined from the rate data as a function of inhibitor concentration.

[3] = target: T2, TAK1A-TAB fusion protein (Homo sapiens, UniProt O43318); assay: TAK-1 inhibition assay, radiometric filter binding assay; conditions: 50 μM ATP, 12 μM bovine myelin basic protein, 20 nM TAK1A-TAB fusion protein
T2 construct: using 20 nM TAK1A-TAB fusion protein
T2 sequence (O43318 with tags, fused parts or gaps isoform O43318-2 limits assumed): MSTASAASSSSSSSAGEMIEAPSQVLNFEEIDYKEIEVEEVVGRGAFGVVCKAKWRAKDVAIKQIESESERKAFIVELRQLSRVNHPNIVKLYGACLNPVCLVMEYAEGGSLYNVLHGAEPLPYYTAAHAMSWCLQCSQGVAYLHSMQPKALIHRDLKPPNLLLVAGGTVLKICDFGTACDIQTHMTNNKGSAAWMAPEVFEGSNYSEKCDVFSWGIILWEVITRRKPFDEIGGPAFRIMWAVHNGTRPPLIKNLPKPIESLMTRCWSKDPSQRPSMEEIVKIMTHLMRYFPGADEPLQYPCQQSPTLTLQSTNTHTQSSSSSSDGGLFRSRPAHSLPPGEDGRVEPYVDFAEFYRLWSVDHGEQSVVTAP
Outline: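 Radiometric filter-binding assay with 20 nM TAK1A-TAB fusion, 50 μM [33P]ATP and 12 μM bovine MBP in pH 7.5 HEPES/MgCl2, NaCl, DTT, 1.5% DMSO. Compounds titrated 0.046–3.73 μM (6 points); 2 h at ~20 °C, TCA quench, filtered counts. Ki derived from rate versus inhibitor concentration.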

In the case of `Fc1cccc(-c2cnoc2-c2c[nH]c3ncc(-c4ccc(N5CCNCC5)cc4)cc23)c1F` [Compound 68, 3-[4-(2,3-Difluoro-phenyl)-isoxazol-5-yl]-5-(4-piperazin-1-yl-phenyl)-1H-pyrrolo[2,3-b]pyridine], the Ki [1] is reported as 200 to 1000 nM, the Ki [2] is reported as < 200 nM and the Ki [3] is reported as < 200 nM.
`CN1CCN(c2ccc(-c3cnc4[nH]cc(-c5oncc5-c5cccc(F)c5F)c4c3)cn2)CC1` [Compound 71, 3-[4-(2,3-Difluoro-phenyl)-isoxazol-5-yl]-5-[6-(4-methyl-piperazin-1-yl)-pyridin-3-yl]-1H-pyrrolo[2,3-b]pyridine] was tested, and the Ki [1] was 1000 to 12500 nM, the Ki [2] was < 200 nM and the Ki [3] was < 200 nM.
